“Also recorded” adds a separate entry of the source.
How the values were obtained:
p44/42 MAPK = test: p44/42 MAPK:Phos p44/42 MAPK ratio by immunocytochemistry, high-content imaging in C2C12; type: cell-based, mouse; conditions: serum starved C2C12, 30 minutes, 0.04 nM
Description: (§1) Stimulation of AKT pathways and MAPK pathways in ellagic acid dihydrate, metformin, and insulin treated cell cultures was performed. Insulin stimulates glucose uptake into cells by increasing GLUT4 activation, and AKT, specifically phos-AKT, signaling alters GLUT4 translocation. […] Cellular assays were performed using mouse myoblast C2C12 cells. Relative protein levels of AKT:phos AKT and p44/42 MAPK:phos p44/42 MAPK were determined.
Serum starved cells (1 hr) were treated for 30 minutes with each of the tested compounds. Ratios of phosphorylated to non-phosphorylated proteins were determined using immunocytochemistry labeling (anti-AKT, anti-Phos AKT; or anti-p44/42 MAPK, anti-Phos p44/42 MAPK) on a high-content imaging system (Operetta, Perkin Elmer) using the fluorescent signal of anti-rabbit Alexa 647. Increased phosphorylation is indicated as decrease in signal of AKT:Phos AKT ratio (log 2 scale) and p44/42 MAPK:Phos p44/42 MAPK ratio (log 2 scale) relative to vehicle treated cells.

AKT = test: AKT:Phos AKT ratio by immunocytochemistry, high-content imaging in C2C12; type: cell-based, mouse; conditions: serum starved C2C12, 30 minutes; 4 nM-4 μM for insulin and ellagic acid dihydrate
Description: as §1, with “[…] Serum starved cells (1 hr) were treated for 30 minutes with each” for “Relative protein levels”, “the tested compounds.” for “AKT:phos AKT and p44/42 MAPK:phos p44/42 MAPK were determined.”

[1] = tested on: mouse myoblast C2C12 cells; test: Glucose uptake, 2-NBDG labeling, flow cytometry, C2C12; type: cell-based
Description: Cellular assays were performed using mouse myoblast C2C12 cells and MEF cells. […] Increased glucose uptake was indicated as increasing signal of 2-NBDG ([…]) in cells. Glucose uptake assays were carried out in a final incubation volume of 50 μl consisting of, 2-NBDG), (100 μM) in 1× Phosphate Buffered Saline w/Ca+, Mg+ (PBS++). The same buffer was used for washing cells. Insulin was used as a positive control. All testing compounds were prepared in 10% DMSO and diluted 1:100 for a final concentration of 0.1% DMSO (vehicle). Cells were culture to 70-90% confluence and then washed twice with PBS++. Cells were incubated for 30 minutes at 37° C. in PBS++. Nuclear stain, HCS CellMask stain (blue, Invitrogen), and/or testing compounds (ellagic acid dihydrate, insulin, or vehicle) were added. Cells were incubated for 30 min at 37° C. Cells were washed twice with PBS++ and incubated with 2-NBDG for 10 minutes. Cells were washed thrice with PBS++ and then imaged in PBS++. Alternatively, the final PBS wash was removed and cells were incubated with Accutase (Invitrogen) for 10 min at 37° C., neutralized with 10% FBS in 1×PBS, and analyzed by flow cytometry. An additional experiment was performed to measure glucose uptake in C2Cl2 cells exposed to metformin, insulin and ellagic acid dihydrate 2 (batch 2). FIG. 5C.

GLUT4-GFP = test: Localization of glucose transporter GLUT4-GFP, time-lapse confocal microscopy in C2C12; type: cell-based, mouse; conditions: C2C12, 4000 nM exposure
Description: Induction of glucose transporter, GLUT-4, in ellagic acid dihydrate treated cell cultures was studied. Cellular assays were performed using mouse myoblast C2C12 cells. The cells were infected with a fusion glucose transporter 4 green fluorescent protein (GLUT4-GFP). This protein allows the visualization of GLUT4 by imaging the GFP under fluorescent time-lapse microscopy. Frames were compiled to produce time-lapse images of cellular changes with no treatment or treatment with insulin. The localization of glucose transporter (GLUT4-GFP) was performed in final incubation volume of 505 μL, consisting of 500 μl of Hank's Buffer (Invitrogen) and 5 μl of tested compounds. Insulin was used as positive controls and vehicle (0.1% DMSO) as the negative control. All test compounds were prepared in 10% DMSO and diluted 1:100 for a final concentration of 0.1% DMSO (vehicle). The cells were rinsed in Hank's Buffer thrice and then incubated in Hank's Buffer at 37° C. for one hour. The test compounds were added (ellagic acid dihydrate, insulin, or vehicle) and the cells were imaged using laser-confocal microscopy (Leica TCS SP5 X) with FITC fluorescent filters to determine changes in GLUT4-GFP localization. Time-lapse images (TIF) were collected and post-processed using Image-J (NIH) for video construction.

MEF cells [2] = test: Glucose uptake, 2-NBDG labeling, high-content imaging (Operetta), MEFs; type: cell-based, mouse
Description: (§2) Increased glucose uptake was indicated as increasing signal of 2-NBDG ([…]) in cells. Glucose uptake assays were carried out in a final incubation volume of 50 μl consisting of, 2-NBDG), (100 μM) in 1× Phosphate Buffered Saline w/Ca+, Mg+ (PBS++). The same buffer was used for washing cells. Insulin was used as a positive control. All testing compounds were prepared in 10% DMSO and diluted 1:100 for a final concentration of 0.1% DMSO (vehicle). Cells were culture to 70-90% confluence and then washed twice with PBS++. Cells were incubated for 30 minutes at 37° C. in PBS++. Nuclear stain, HCS CellMask stain (blue, Invitrogen), and/or testing compounds (ellagic acid dihydrate, insulin, or vehicle) were added. Cells were incubated for 30 min at 37° C. Cells were washed twice with PBS++ and incubated with 2-NBDG for 10 minutes. Cells were washed thrice with PBS++ and then imaged in PBS++. Alternatively, the final PBS wash was removed and cells were incubated with Accutase (Invitrogen) for 10 min at 37° C., neutralized with 10% FBS in 1×PBS, and analyzed by flow cytometry. An additional experiment was performed to measure glucose uptake in C2Cl2 cells exposed to metformin, insulin and ellagic acid dihydrate 2 (batch 2). FIG. 5C. Glucose uptake in ellagic acid dihydrate treated cell culture was measured and compared to glucose uptake under insulin or ellagic acid treatment. […] Flow cytometry results were run in triplicate with 1000 cells per batch.

MEF cells [3] = test: Glucose uptake, 2-NBDG labeling, flow cytometry, MEFs; type: cell-based, mouse; conditions: flow cytometry
Description: as §2, with “Cellular assays were performed using mouse myoblast C2C12 cells and MEF cells. […] Increased” for “Increased”

Activity level in mice = type: in vivo, mouse; conditions: mice, Applicant's observation
Source text: Activity levels in mice treated with ellagic acid dihydrate may be quantified by several procedures, such as those outlined in Turri, M. et al.; QTL Analysis Identifies Multiple Behavioral Dimensions in Ethological Tests of Anxiety in Laboratory Mice; Current Biology; 2001; 11(10): 725-734. Two examples of procedures taught therein follows. Gross Locomotor Activity in Home Cage: Mice are caged singly several days prior to home cage activity monitoring and subsequent testing. Activity in home cages are measured during the first 2 hours of the dark cycle on two consecutive days. Two infrared photo emitter-detector pairs, located outside the clear plastic home cage that divide the cage into three equal areas, are used to record gross locomotor activity on the floor of the home cage as the animal breaks the photo beams. The beam-break activity score consists of the square root of the number of beam breaks for each detector summed across the two test days. Magnitude of Activity in Home Cage: Mice are caged singly several days prior to home cage activity monitoring and subsequent testing. Activity in home cages are measured during the first 2 hours of the dark cycle on two consecutive days. An infrared motion detector located above the top of the home cage is employed to converts all motion sensed within the home cage into arbitrary units, based on the magnitude of activity detected.

[4] = Weight loss and blood glucose in female SWV mice with STZ induced diabetes, 30 days gavage; type: in vivo, mouse; conditions: thirty days
Description: Weight loss and blood glucose in diabetes induced mice treated with ellagic acid was determined and weight loss and blood glucose in mice treated with ellagic acid dihydrate may be determined by the following procedures. Induction of Diabetes: Diabetes is induced in mice by intraperitoneal injection with Streptozotocin (STZ 40 mg/kg) daily for five days. The mice are considered hyperglycemic when the glucose level of each dam is above 200 mg/dL. The mice are fasted for 4 hours before STZ injection and glucose measurement. Treatment: The mice are treated daily for thirty days with ellagic acid or control in the form of a supplemental pill homogenized and suspended in 25% water solution of Cremophor EL. The mice are treated for one month via gavage using the human equivalent dose of 122.4 mg pill/kg of subject (40.6 mg ellagic acid/kg of the subject), the human equivalent does of 40.6 mg ellagic acid/kg of the subject using 98% pure ellagic acid, or control vehicle (25% water solution of Cremophor EL). The human equivalent dose is calculated as described in Example 8. Treatments would start two weeks after the last STZ injection in which hyperglycemia is confirmed in the diabetic mice. The mice would be weighed daily and glucose levels would be measured in fasted animals every five days.

Compound | p44/42 MAPK:Phos p44/42 MAPK ratio relative to vehicle (p44/42 MAPK) | AKT:Phos AKT ratio (log 2 scale) relative to vehicle treated cells (AKT) | dose effect for increasing glucose uptake ([1]; C2C12, flow cytometry, 2-NBDG) | glucose uptake (2-NBDG signal) relative to vehicle ([1]; C2C12, flow cytometry, vehicle 0.1% DMSO) | increase in glucose uptake in myoblasts relative to fibroblasts ([1]; C2C12 myoblasts versus MEF fibroblasts) [×] | GLUT4-GFP localization (GLUT4-GFP) | ruffling of filopodia at the surface of the cell (GLUT4-GFP) | p44/42 MAPK:Phos p44/42 MAPK ratio relative to vehicle (p44/42 MAPK; 400 nM) | dose effect for increasing glucose uptake (MEF cells [2]) | glucose uptake (2-NBDG signal) (MEF cells [2]; versus vehicle (Neg, 0.1% DMSO)) | increased glucose uptake (percent change relative to vehicle) (MEF cells [3]; 400 nM exposure, fibroblasts (MEFs)) [%] | dose effect for increasing glucose uptake (MEF cells [3]; MEFs, 2-NBDG) | glucose uptake (2-NBDG signal) relative to vehicle (MEF cells [3]; MEFs, vehicle 0.1% DMSO) | activity levels (Activity level in mice) | mean glucose level values, treated versus control mice ([4]; STZ diabetic mice) | average loss of body weight ([4]; female SWV mice with STZ induced diabetes, human equivalent dose (40.6 mg ellagic acid/kg), gavage daily, control lost 2.2%) [%]
CN(C)C(=N)N=C(N)N [metformin] | increased the ratio of p44/42 MAPK | increase in AKT relative to phosphorylation of AKT | – | – | – | – | – | – | – | – | – | – | – | – | – | –
insulin [reference compound] | – | −0.5 | dose effect for increasing glucose uptake | significant increase in glucose uptake relative to the vehicle | ~4 | decrease in GLUT4-GFP around the cell nucleus and a parallel increase of movement at the membrane | rapid production of numerous projections (ruffling of filopodia) at the surface of the cell | increase in p44/42 MAPK | dose effect for increasing glucose uptake | showed an increase in glucose uptake | 32 | dose effect for increasing glucose uptake | significant increase in glucose uptake relative to the vehicle | – | – | –
O=c1oc2c(O)c(O)cc3c(=O)oc4c(O)c(O)cc1c4c23 [ellagic acid] | – | – | – | – | – | – | – | – | little to no glucose uptake per unit dose; also recorded: no such dose effect was seen | – | – | – | – | increased activity levels | no significant differences between the mean glucose level values | 11.7

Source: US20170367390A1, “USE OF ELLAGIC ACID DIHYDRATE IN FOOD PRODUCTS AND NUTRACEUTICALS” (HALO LIFE SCIENCE, LLC, priority 2014, published 2017)
